From US11578140B2, “Immunoassay for mitragynine” (MICROGENICS CORPORATION, priority 2019, dated 2023)

Test system: anti-mitragynine antibody
Experiment: Cross reactivity of the anti-mitragynine antibody against kratom alkaloids and mitragynine metabolites
Format: binding, Balb/c mice
Conditions: for Cross Reactivity (%): tested concentration (ng/mL): Mitragynine 50, 7-hydroxy mitragynine 35,000-40,000, Paynantheine 25,000-35,000, Speciociliatine 25,000-35,000, 16-carboxy mitragynine 300-360, 9-Hydroxycorynantheidine 3,125-4,000; for cross reactivity (in words): metabolites of mitragynine, antibody derived from the BSA immunogen
Protocol: In a particular embodiment of the invention, the BSA-containing immunogen of Example 4 (Compound 6) was administered to Balb/c mice in a series of injections as is routine in the art. Alternatively, other mammals are suitable for antibody production. Screening of anti-serum samples taken from the immunized mice was performed to assess antibody titer and to evaluate the ability of antibodies in the samples to bind to enzyme-donor conjugate described in Example 6.
In particular, β-galactosidase enzyme donor polypeptide fragment combines with a β-galactosidase enzyme acceptor fragment to form active β-galactosidase enzyme. The active enzyme complex is capable of transforming a substrate into a product that is differentially detectable. Usually, the product is a different color from the substrate and is quantified using spectrophotometric methods. […] Therefore, the enzyme-catalyzed reaction rate is directly proportional to the concentration of target analyte present in the specimen tested. A preferred β-galactosidase enzyme donor is ED28, a polypeptide containing residues 6-45 of β-galactosidase, with cysteines at positions 1 and 46 (relative to the numbering of the original β-galactosidase fragment).
The cross reactivity of the anti-mitragynine antibody derived from the immunogen described above was tested against certain kratom alkaloids and metabolites of mitragynine shown below.

Compound	Cross Reactivity (%)	cross reactivity (in words)
CC[C@@H]1CN2CC[C@@]3(O)C(=Nc4cccc(OC)c43)[C@@H]2C[C@@H]1/C(=C\OC)C(=O)OC [7-hydroxy mitragynine]	≤0.2%	–
CC[C@@H]1CN2CCc3c([nH]c4cccc(O)c34)[C@@H]2C[C@@H]1/C(=C\OC)C(=O)OC [9-Hydroxycorynantheidine, (E)-2-[(25,35,12b5)-3-ethyl-8-hydroxy-1,2,3,4,6,7,12,12b-octahydroindolo [2,3-a]quinozilizin-2-yl]-3-methoxy propenoic acid methyl ester]	1.25-1.6%	low levels of cross reactivity
CC[C@@H]1CN2CCc3c([nH]c4cccc(OC)c34)[C@@H]2C[C@@H]1/C(=C\OC)C(=O)O [16-carboxy mitragynine]	13.9-16.7%	low levels of cross reactivity
C=C[C@H]1CN2CCc3c([nH]c4cccc(OC)c34)[C@@H]2C[C@@H]1/C(=C\OC)C(=O)OC [Paynantheine]	≤0.2%	–
CC[C@@H]1CN2CCc3c([nH]c4cccc(OC)c34)[C@H]2C[C@@H]1/C(=C\OC)C(=O)OC [Speciociliatine]	≤0.2%	–
CC[C@@H]1CN2CCc3c([nH]c4cccc(OC)c34)[C@@H]2C[C@@H]1/C(=C\OC)C(=O)OC [Mitragynine, methyl (E)-2-[(2S,3S,12bS)-3-ethyl-8-methoxy-1,2,3,4,6,7,12,12b-octahydroindolo[2,3-a]quinolizin-2-yl]-3-methoxyprop-2-enoate]	100%	–
